Our source for the melting point and IC50 values is patent US7687517B2, “3,9-Diazabicyclo [3.3.1] nonane derivatives and their use as monoamine neurotransmitter re-uptake inhibitors” (Neurosearch A/S, priority 2006, dated 2010).

Where a name gives a salt, the structure may show the parent alone. Read-outs that look alike come from different tables or passages of the source. Bounds are passed on as bounds.

The target of series [1] is T1, reuptake of dopamine (DA) in synaptosomes (Rattus norvegicus, UniProt P23977).
T1 construct: in synaptosomes as described in WO 97/16451; from tissue
T1 sequence (P23977 whole entry): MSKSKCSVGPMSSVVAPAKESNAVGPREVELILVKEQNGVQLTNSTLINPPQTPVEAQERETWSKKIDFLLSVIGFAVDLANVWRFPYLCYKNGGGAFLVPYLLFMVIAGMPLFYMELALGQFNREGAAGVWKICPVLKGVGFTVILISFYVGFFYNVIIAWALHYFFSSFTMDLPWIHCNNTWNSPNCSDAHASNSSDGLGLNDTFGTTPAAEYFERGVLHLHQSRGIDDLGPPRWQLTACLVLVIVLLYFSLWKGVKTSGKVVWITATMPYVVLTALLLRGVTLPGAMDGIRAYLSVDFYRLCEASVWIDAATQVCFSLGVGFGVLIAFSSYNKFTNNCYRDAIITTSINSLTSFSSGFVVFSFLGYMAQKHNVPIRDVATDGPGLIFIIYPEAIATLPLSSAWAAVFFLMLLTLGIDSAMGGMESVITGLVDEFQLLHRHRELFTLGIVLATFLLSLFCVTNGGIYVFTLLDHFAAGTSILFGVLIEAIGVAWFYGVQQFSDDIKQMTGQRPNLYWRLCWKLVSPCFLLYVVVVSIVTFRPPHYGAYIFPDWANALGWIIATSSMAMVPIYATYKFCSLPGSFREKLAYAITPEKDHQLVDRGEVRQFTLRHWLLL
As to the kind of experiment: Inhibition of dopamine reuptake in synaptosomes. The format is biochemical. The settings on record: 3H-DA, read-out: DA-uptake IC50.

For series [2], the target named is T2, reuptake of noradrenaline (NA) in synaptosomes (Rattus norvegicus, UniProt Q63380).
T2 construct: in synaptosomes as described in WO 97/16451; from tissue
T2 sequence (Q63380 1-617): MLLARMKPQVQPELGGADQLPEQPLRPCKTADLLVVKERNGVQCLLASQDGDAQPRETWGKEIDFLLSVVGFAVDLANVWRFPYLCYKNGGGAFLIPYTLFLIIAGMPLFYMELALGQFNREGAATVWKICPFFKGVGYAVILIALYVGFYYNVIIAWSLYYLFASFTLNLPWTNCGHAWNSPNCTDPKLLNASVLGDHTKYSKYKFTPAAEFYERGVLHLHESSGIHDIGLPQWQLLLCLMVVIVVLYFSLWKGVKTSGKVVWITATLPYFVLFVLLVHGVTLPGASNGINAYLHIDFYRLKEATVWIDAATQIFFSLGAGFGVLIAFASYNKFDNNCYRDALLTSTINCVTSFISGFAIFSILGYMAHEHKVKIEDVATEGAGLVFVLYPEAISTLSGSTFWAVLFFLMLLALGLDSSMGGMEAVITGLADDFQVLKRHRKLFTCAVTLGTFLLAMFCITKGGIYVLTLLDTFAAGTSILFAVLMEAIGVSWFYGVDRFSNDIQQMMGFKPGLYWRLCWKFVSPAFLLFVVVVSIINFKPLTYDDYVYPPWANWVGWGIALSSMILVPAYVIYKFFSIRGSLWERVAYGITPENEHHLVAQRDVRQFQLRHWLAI
As to the kind of experiment: Inhibition of noradrenaline reuptake in synaptosomes. Format: biochemical.

The target in series [3] is T3, reuptake of serotonine (5-HT) in synaptosomes (Rattus norvegicus, UniProt P31652).
T3 construct: in synaptosomes as described in WO 97/16451; from tissue
T3 sequence (P31652 whole entry): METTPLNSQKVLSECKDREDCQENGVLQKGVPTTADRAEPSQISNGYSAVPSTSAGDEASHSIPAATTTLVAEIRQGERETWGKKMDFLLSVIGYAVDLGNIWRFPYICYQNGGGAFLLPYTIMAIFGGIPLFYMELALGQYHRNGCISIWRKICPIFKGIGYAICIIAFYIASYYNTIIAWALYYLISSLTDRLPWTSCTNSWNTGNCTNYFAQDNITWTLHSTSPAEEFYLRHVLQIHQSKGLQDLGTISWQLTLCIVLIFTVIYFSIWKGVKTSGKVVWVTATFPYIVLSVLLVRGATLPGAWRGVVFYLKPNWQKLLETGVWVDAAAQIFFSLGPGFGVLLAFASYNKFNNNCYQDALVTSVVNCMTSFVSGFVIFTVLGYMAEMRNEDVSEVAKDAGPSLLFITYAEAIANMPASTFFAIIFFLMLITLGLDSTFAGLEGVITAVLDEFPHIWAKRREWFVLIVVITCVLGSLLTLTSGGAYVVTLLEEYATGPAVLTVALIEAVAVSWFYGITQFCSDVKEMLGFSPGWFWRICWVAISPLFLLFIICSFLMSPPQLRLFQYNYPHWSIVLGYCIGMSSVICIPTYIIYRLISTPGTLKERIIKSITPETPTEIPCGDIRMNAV
As to the kind of experiment: Inhibition of serotonin reuptake in synaptosomes. Format: biochemical. As to the method: A number of compounds were tested for their ability to inhibit the reuptake of the monoamine neurotransmitters dopamine (DA) noradrenaline (NA) and serotonine (5-HT) in synaptosomes as described in WO 97/16451.
The test values are given as IC50 (the concentration (μM) of the test substance which inhibits the specific binding of ^3H-DA, ^3H-NA, or ^3H-5-HT by 50%).

[4] abbreviates: synaptosomes, 3H-NA, read-out: NA-uptake IC50.

`CN1C2CCCC1CN(c1ccc3ccccc3n1)C2` (as salt: fumaric acid salt) [2nd compound of Method A, 9-Methyl-3-quinolin-2-yl-3,9-diaza-bicyclo[3.3.1]nonane] came in with a melting point of 170.2 to 176.9 °C.

For `O=[N+]([O-])c1ccc2nc(N3CC4CCCC(C3)N4)ccc2c1` [1st compound of Method B, 3-(6-Nitro-quinolin-2-yl)-3,9-diaza-bicyclo[3.3.1]nonane], the figures for the 50% inhibitory concentration (IC50) in series [1], in series [2] (setting [4]) and in series [3] were more than 1000 nM, 1200 nM and 0.9 nM, respectively.

On to `CN1C2CCCC1CN(c1ccc3ccccc3n1)C2` [2nd compound of Method A, 9-Methyl-3-quinolin-2-yl-3,9-diaza-bicyclo[3.3.1]nonane], for which the IC50 in series [1] is more than 1000 nM; in series [2] (setting [4]), 140 nM; in series [3], 7.7 nM.

On to `COc1ccc2nc(N3CC4CCCC(C3)N4C)ccc2c1` [5th compound of Method A, 3-(6-Methoxy-quinolin-2-yl)-9-methyl-3,9-diaza-bicyclo[3.3.1]nonane], for which the IC50 in series [1] was found to be 1800 nM; in series [2] it was 100 nM; in series [3], 26 nM.
